# Measured values: patent US20230293529A1, “DOSING REGIMENS FOR N-((5-FLUORO-2,3-DIHYDROBENZOFURAN-4-YL)METHYL)-8-(2-METHYLPYRIDIN-3-YL)-[1,2,4]TRIAZOLO[4,3-C]PYRIMIDIN-5-AMINE, OR A PHARMACEUTICALLY ACCEPTABLE SALT THEREOF, FOR USE IN TREATING PRC2-MEDIATED DISEASES OR DISORDERS” (Novartis AG, priority 2020, published 2023)
# What was measured:
# [1] = Pharmacokinetic profile of MAK683 in sequential blood samples, Phase I/II study; assay type: in vivo, human
# Excerpt: (§1) This study is a multicenter, open label, study to establish the maximum tolerated dose (MTD) and/or recommended phase 2 dose (RP2D) and to evaluate the safety, antitumor activity and pharmacokinetic (PK) profile of MAK683 (Compound (1) of MAK683 (Compound (1) in subjects with advanced malignancies such as Diffuse Large B cell Lymphoma (DLBCL), nasopharyngeal carcinoma (NPC) or other advanced solid tumors for whom no further effective standard treatment is available. The patients will be administered MAK683 single agent orally until they experience unacceptable toxicity, progressive disease and/or treatment discontinuation at the discretion of the investigator or patient or withdrawal of consent. The phase I part plans to enroll patients with relapsed/refractory DLBCL, advanced/ metastatic nasopharyngeal carcinoma with presence of p16/CDKN2A gene and other solid tumors including castration-resistant prostate cancer, gastric cancer, OCCC, sarcoma. All patients enrolled in this part of the study will receive escalating oral doses of MAK683 in fasted condition, unless significant GI toxicity is observed, in which case dosing with moderate-fat meals may be assessed. The starting dose and regimen for the MAK683 first-in-man clinical study is about 10 mg QD. Escalation will continue to about 20 mg, about 40 mg, about 80 mg, about 120 mg, about 160 mg, about 160 mg, about 240 mg, about 300 mg, about 500 mg or about 800 mg or until the MTD is reached or a RP2D is established based on emerging data.
# (§2) MAK683 was administered fasted once (QD) or twice daily (BID) on a continuous schedule in 28-day treatment cycles. The pharmacokinetic (PK) profile of MAK683 was assessed in sequential blood samples on Days 1, 8 and/or 15 of Cycles 1-6. MAK683 pharmacodynamic activity in Cycle 1, measured by change in H3K27me3, was evaluated in peripheral blood monocytes on Days 1, 8, and 15 by flow cytometry and in tumor biopsies at baseline and Day 15 by H-score.
# H3K27me3 [2] = experiment: Pharmacodynamic activity: H3K27me3 in tumor biopsies by H-score; assay type: in vivo, human; conditions: paired baseline-Day 15 tumor biopsies; diffuse large B-cell lymphoma (n=4) or sarcoma (n=6)
# Description: as §2
# [3] = test system: advanced malignancies (DLBCL, nasopharyngeal carcinoma, other advanced solid tumors); experiment: Antitumor activity, overall response rate (ORR) in subjects with advanced malignancies; assay type: in vivo, human; conditions: local assessment per Cheson 2014, RECIST v1.1 and PCWG2
# Excerpt: as §1, with “Escalation will continue to about 20 mg, about 40 mg, about 80 mg, about 120 mg, about 160 mg, about 160 mg, about 240 mg, about 300 mg, about 500 mg or about 800 mg or until the MTD is reached or a RP2D is established based on emerging data.” left out
# H3K27me3 [4] = experiment: Pharmacodynamic activity: change in H3K27me3 in peripheral blood monocytes by flow cytometry; assay type: in vivo, human
# Description: as §2
# [5] = Safety, adverse events in Phase I/II study; assay type: in vivo; conditions: patients with advanced malignancies, oral MAK683
# Excerpt: as §1, with “Escalation will continue to about 20 mg, about 40 mg, about 80 mg, about 120 mg, about 160 mg, about 160 mg, about 240 mg, about 300 mg, about 500 mg or about 800 mg or until the MTD is reached or a RP2D is established based on emerging data.” left out
compound,measurement,setting,value
"Cc1ncccc1-c1cnc(NCc2c(F)ccc3c2CCO3)n2cnnc12 [MAK683, N-((5-fluoro-2,3-dihydrobenzofuran-4-yl)methyl)-8-(2-methylpyridin-3-yl)-[1,2,4]triazolo[4,3-c]pyrimidin-5-amine]",PK exposure (Cmax and AUC) dose proportionality,[1]; 800 mg QD,over-proportional
same,PK exposure (Cmax and AUC) dose proportionality,[1]; 10-500 mg QD and 60-450 mg BID,variable and broadly dose-proportional
same,accumulation after multiple doses (Racc),[1]; after multiple doses,0.8-2.3
same,half-life,"[1]; human, blood, oral, across cohorts, unchanged after multiple doses, read-out: Apparent terminal half-life (geometric mean)",2.5 to 5.2 h
same,Tmax,"[1]; human, blood, patients, oral, fasted, 10-800 mg QD or 60-450 mg BID, read-out: median Tmax",~1 h
same,Time to steady-state,"[1]; patients, QD or BID continuous dosing",~3 days
same,patients with H3K27me3 H-score reductions from baseline >40,H3K27me3 [2],7/10
same,positive endpoint: improved overall response rate (ORR),[3],met at least one of the above endpoints
same,H3K27me3/H3 ratio change from baseline in peripheral monocytes,"H3K27me3 [4]; Cycle 1, Days 1, 8, 15, across doses",substantial on-treatment reductions from baseline
same,"Maximum percentage reduction of H3K27me3/H3 ratio, relation to exposure",H3K27me3 [4]; peripheral monocytes,proportional to cumulative MAK683 AUC
same,adverse events,[5],mild to moderate and did not lead to discontinuation
